“Also recorded” adds a separate entry of the source.
How the values were obtained:
[1] = test system: human pancreatic cancer cells (BxPC3); assay: antitumor effect (tumor size) on subcutaneous BxPC3 tumor; type: in vivo, Nude mice; details: Pt 8 mg/ml
[2] = blood at 1, 4, 8 and 24 hours after tail vein injection of 0.2 ml
Description: After collection, the blood was rapidly mixed with heparin to prevent coagulation, and then centrifuged to collect plasma only. The collected plasma was mixed with 90% HNO3, heated and dried, dissolved in 5N HCl, and then diluted appropriately, followed by ICP-MS to determine Gd and Pt contents.

[3] = test system: human pancreatic cancer cells (BxPC3); assay: in vivo MRI in orthotopic transplantation model of BxPC3; design: species or system Nude mice; details: equal amounts of micelles and free Gd-DTPA
Description: Nude mice (female, 6 weeks of age) were laparotomized under inhalation anesthesia, injected with 0.1 ml of human pancreatic cancer cells (BxPC3) under the serous membrane of the pancreas and then kept for 1 month to prepare an orthotopic transplantation model. MRI was imaged with a 4.7 Tesla Superconductive Magnet Unit (Varian, Palo Alto, Calif.) VXR-MRI Console under the following imaging conditions: repetition time (TR): 500 ms, echo time (TE): 15 ms, field of view (FOV): 32 mm×32 mm, matrix size: 256×256, slice thickness: 2 mm to obtain Spin Echo T1w images. The mice were injected under 5% isoflurane inhalation anesthesia and maintained under 1.2% isoflurane anesthesia during imaging. […] Imaging was performed every 5 minutes during the first 1 hour after injection via the tail vein, then every 15 minutes for 4 hours. Moreover, an equal amount of free Gd-DTPA serving as a control was also injected via the tail vein and imaged in the same manner. The resulting images were analyzed by Mathematica (Wolfram Research Inc.) and Excel (Microsoft, Inc.).

Row | Compound | antitumor effect (tumor size), words ([1]; 0.2 ml i.v. on day 0, 2 and 4) | antitumor effect (tumor size), words ([1]; 0.2 ml i.v. on day 0, 2 and 4, listed as Oxaliplatin) | residual drug content in plasma / retention in blood [2] | contrast enhancement / intensity in tumor [3]
1 | O=C1[O][Pt]2([NH][C@@H]3CCCC[C@H]3[NH]2)[O]C1=O [oxaliplatin] | substantially the same tendency as the control | little therapeutic effect | rapidly disappear from plasma | 
2 | O=C([O-])CN(CCN(CC(=O)[O-])CC(=O)O)CCN(CC(=O)[O-])CC(=O)O.[Gd+3] [Gd-DTPA, gadolinium diethylene triamine pentaacetic acid] |  |  | rapidly disappear from plasma | little contrast enhancement; also recorded: little increase in intensity
